Experimental data as given in ChEMBL document CHEMBL1938317, “Structure-based de novo design and biochemical evaluation of novel BRAF kinase inhibitors” (Bioorg Med Chem Lett, 2012).

target: Serine/threonine-protein kinase B-raf (Homo sapiens, UniProt P15056)
Sequence (P15056 whole entry): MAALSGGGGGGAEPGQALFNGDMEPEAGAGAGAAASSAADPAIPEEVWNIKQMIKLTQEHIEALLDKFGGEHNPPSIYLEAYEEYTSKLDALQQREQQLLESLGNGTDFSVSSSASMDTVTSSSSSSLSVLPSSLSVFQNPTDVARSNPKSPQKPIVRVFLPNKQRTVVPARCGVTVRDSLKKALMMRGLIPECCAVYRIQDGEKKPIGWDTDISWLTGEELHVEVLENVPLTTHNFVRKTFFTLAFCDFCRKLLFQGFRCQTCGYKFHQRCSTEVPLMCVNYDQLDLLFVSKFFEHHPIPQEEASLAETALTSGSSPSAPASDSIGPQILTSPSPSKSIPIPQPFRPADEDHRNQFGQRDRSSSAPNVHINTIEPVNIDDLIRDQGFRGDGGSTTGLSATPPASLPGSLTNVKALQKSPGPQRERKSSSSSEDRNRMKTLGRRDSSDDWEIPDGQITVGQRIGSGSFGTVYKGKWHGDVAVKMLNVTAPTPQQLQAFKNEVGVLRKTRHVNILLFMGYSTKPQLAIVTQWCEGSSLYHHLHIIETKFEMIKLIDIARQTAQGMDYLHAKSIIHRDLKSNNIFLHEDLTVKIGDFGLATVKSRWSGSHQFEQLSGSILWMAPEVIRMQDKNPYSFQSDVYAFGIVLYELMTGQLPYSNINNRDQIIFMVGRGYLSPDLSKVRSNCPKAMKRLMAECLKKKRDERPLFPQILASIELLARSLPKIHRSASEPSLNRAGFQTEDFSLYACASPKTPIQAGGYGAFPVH
Description: Inhibition of BRAF by high-throughput assay

Q: For CCC(=O)c1cccc(Nc2nc(N)nc3nc[nH]c23)c1, which Kd is on record?
A: The Kd was 2.8 µM.

Q: How did the Kd turn out when NS(=O)(=O)c1ccc(Nc2nncc3c(-c4ccc(O)cc4)cccc23)cc1 was run?
A: The Kd was 4.7 µM.

Q: Which Kd does the source give for Nc1nc(Nc2cccc(C(F)(F)F)c2)c2[nH]cnc2n1 here?
A: The Kd was 1.7 µM.

Q: Which Kd does the source give for c1nc2c(Nc3ccc4c(c3)OCCO4)nc(Nc3ccc4c(c3)OCCO4)nc2[nH]1 here?
A: Its Kd is 5.2 µM.

Q: Which Kd does the source give for COc1ccc(Nc2nncc3c(-c4ccc(O)cc4)cccc23)cc1 here?
A: Its Kd is 3.7 µM.

Q: How did the Kd turn out when NC(=O)Cc1ccc(Nc2nncc3c(-c4ccc(O)cc4)cccc23)cc1 was run?
A: Its Kd is 8 µM.

Q: How did the Kd turn out when Nc1nc(Nc2cccc(Br)c2)c2[nH]cnc2n1 was run?
A: Its Kd is 2.2 µM.

Q: With NC(=O)COc1ccc(Nc2nncc3c(-c4ccc(O)cc4)cccc23)cc1 as the compound, how does the Kd read?
A: Its Kd is 2.5 µM.

Q: Which Kd does the source give for CC(=O)Nc1ccc(Nc2ncnc3nc[nH]c23)cc1 here?
A: Its Kd is 0.79 µM.

Q: O=C(O)c1ccc(Nc2ncnc3nc[nH]c23)cc1 was tested. Which Kd did it give?
A: Its Kd is 9.4 µM.

Q: COc1cc(Nc2nc(N)nc3nc[nH]c23)cc(OC)c1OC was tested. Which Kd did it give?
A: The Kd was 4.1 µM.

Q: With Nc1nc(Nc2ccccc2O)c2[nH]cnc2n1 as the compound, how does the Kd read?
A: Its Kd is 2 µM.

Q: For CN(C)C(=O)Cc1ccc(-c2cccc3c(Nc4cccc(O)c4)nncc23)cc1, which Kd is on record?
A: Its Kd is 9.6 µM.

Q: With Cc1ccc(Nc2nncc3c(-c4ccc(O)cc4)cccc23)cc1 as the compound, how does the Kd read?
A: The Kd was 4.7 µM.

Q: Nc1nc(Nc2cccc(F)c2)c2[nH]cnc2n1 was tested. Which Kd did it give?
A: The Kd was 4.8 µM.

Q: With COc1ccc(Nc2nc(N)nc3[nH]cnc23)cc1OC as the compound, how does the Kd read?
A: The Kd was 5.1 µM.

Q: How did the Kd turn out when Oc1ccc(-c2cccc3c(Nc4cccc(O)c4)nncc23)cc1 was run?
A: Its Kd is 5.1 µM.

Q: With COc1cc(Nc2nc(N)nc3[nH]cnc23)cc(OC)c1 as the compound, how does the Kd read?
A: Its Kd is 3.1 µM.

Q: For Nc1nc(Nc2ccc(F)c(Cl)c2)c2nc[nH]c2n1, which Kd is on record?
A: Its Kd is 3.2 µM.

Q: Which Kd does the source give for Nc1nc(Nc2cccc(O)c2)c2[nH]cnc2n1 here?
A: Its Kd is 5.8 µM.

Q: With Nc1nc(Nc2cccc(Cl)c2)c2nc[nH]c2n1 as the compound, how does the Kd read?
A: The Kd was 3 µM.

Q: With Nc1nc(Nc2ccc(Cl)c(Cl)c2)c2nc[nH]c2n1 as the compound, how does the Kd read?
A: Its Kd is 3.6 µM.
